Laboratory results reported in article PMC9828493, “Design, Synthesis, and in Vitro Evaluation of 4‐(4‐Hydroxyphenyl)piperazine‐Based Compounds Targeting Tyrosinase” (Chemmedchem, 2022).

What was measured:
[1] = target: TYR from Agaricus bisporus (AbTYR) (Agaricus bisporus, UniProt C7FF04); assay: Inhibition of diphenolase activity of AbTYR (L-DOPA as substrate); conditions: IC50 [μM]±SD, inhibition of diphenolase activity of AbTYR, L-DOPA substrate, three replicates;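 further: absorbance measured spectrophotometrically with L-DOPA as substrate, inhibition expressed as percent relative to control sample, IC50 interpolated from dose-response curves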
Sequence of TYR from Agaricus bisporus (AbTYR) (C7FF04 1-392 limits assumed): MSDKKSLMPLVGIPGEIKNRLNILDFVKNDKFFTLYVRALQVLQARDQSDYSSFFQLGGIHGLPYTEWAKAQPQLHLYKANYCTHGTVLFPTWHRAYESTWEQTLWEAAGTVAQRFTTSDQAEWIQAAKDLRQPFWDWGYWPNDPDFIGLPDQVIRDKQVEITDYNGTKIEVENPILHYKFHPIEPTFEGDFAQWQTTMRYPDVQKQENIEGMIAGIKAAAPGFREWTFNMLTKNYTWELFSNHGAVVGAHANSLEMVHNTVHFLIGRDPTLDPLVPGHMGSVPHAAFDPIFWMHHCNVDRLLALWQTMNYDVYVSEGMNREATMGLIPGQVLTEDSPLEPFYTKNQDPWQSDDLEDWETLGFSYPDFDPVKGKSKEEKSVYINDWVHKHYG
Method: Mushroom tyrosinase inhibition assay
absorbance was measured after 60 or 1 min of incubation time in the reaction mixture containing
L-tyrosine or L-DOPA, respectively. The inhibitory activity was expressed as inhibition percentage
respect to control sample.
calculated by interpolation of the dose-response curves. Kojic acid [5-hydroxy-2-(hydroxymethyl)-
4H-pyran-4-one], a fungal secondary metabolite used as skin whitening agent, was employed as a
positive standard (10–50 μM). A spectrophotometer (Agilent Cary 60 UV-Vis Spectrophotometer)
was used for absorbance measurements.
Kinetic analysis of the tyrosinase inhibition
The inhibition kinetics on the tyrosinase were studied using Lineweaver-Burk double reciprocal
plots. The reaction mixture consisted of four different concentrations of the substrate L-DOPA
(0.6–5 mM), and mushroom tyrosinase in phosphate buffer (0.05 M, pH 6.8). Three different
concentrations were used for the analysis. Preincubation and measurement time were the same
as discussed in mushroom tyrosinase inhibition assay. The Michaelis-Menten constant (Km) and
maximal velocity (Vmax) of tyrosinase were determined by Lineweaver-Burk plots.

O=C(c1ccccc1)N1CCN(c2ccc(O)cc2)CC1 [compound 2, (4‐(4‐Hydroxyphenyl)piperazin‐1‐yl)(phenyl)methanone]
IC50 [1]: 73.2 ± 3.5 µM

O=C(c1ccc(-c2ccccc2)cc1)N1CCN(c2ccc(O)cc2)CC1 [compound 3, (4‐(4‐Hydroxyphenyl)piperazin‐1‐yl)(biphenyl‐4‐yl)methanone]
IC50 [1]: 128 ± 4.1 µM

O=C(c1ccccc1F)N1CCN(c2ccc(O)cc2)CC1 [compound 4, (4‐(4‐Hydroxyphenyl)piperazin‐1‐yl)(2‐fluorophenyl)methanone]
melting point: 142 to 143 °C
IC50 [1]: 15.2 ± 0.9 µM

O=C(c1cccc(F)c1)N1CCN(c2ccc(O)cc2)CC1 [compound 5, (4‐(4‐Hydroxyphenyl)piperazin‐1‐yl)(3‐fluorophenyl)methanone]
melting point: 145 to 146 °C
IC50 [1]: 22.6 ± 1.3 µM

O=C(c1cccc(Cl)c1)N1CCN(c2ccc(O)cc2)CC1 [compound 8, (4‐(4‐Hydroxyphenyl)piperazin‐1‐yl)(3‐chlorophenyl)methanone]
melting point: 138 to 139 °C
IC50 [1]: 9 ± 1 µM

O=C(c1ccc(Cl)cc1)N1CCN(c2ccc(O)cc2)CC1 [compound 9, (4‐(4‐Hydroxyphenyl)piperazin‐1‐yl)(4‐chlorophenyl)methanone]
IC50 [1]: 8.9 ± 0.9 µM

O=C(c1cccc(Br)c1)N1CCN(c2ccc(O)cc2)CC1 [compound 12, (4‐(4‐Hydroxyphenyl)piperazin‐1‐yl)(3‐bromophenyl)methanone]
IC50 [1]: 16.4 ± 1.9 µM

O=C(c1ccc(Br)cc1)N1CCN(c2ccc(O)cc2)CC1 [compound 13, (4‐(4‐Hydroxyphenyl)piperazin‐1‐yl)(4‐bromophenyl)methanone]
melting point: 190 to 191 °C
IC50 [1]: 39.6 ± 0.9 µM

Cc1ccccc1C(=O)N1CCN(c2ccc(O)cc2)CC1 [compound 14, [4‐(4‐Hydroxyphenyl)piperazin‐1‐yl](2‐methylphenyl)methanone]
melting point: 127 to 128 °C
IC50 [1]: 29.9 ± 2 µM

Cc1cccc(C(=O)N2CCN(c3ccc(O)cc3)CC2)c1 [compound 15, [4‐(4‐Hydroxyphenyl)piperazin‐1‐yl](3‐methylphenyl)methanone]
melting point: 155 to 156 °C
IC50 [1]: 31.7 ± 0.5 µM

Cc1ccc(C(=O)N2CCN(c3ccc(O)cc3)CC2)cc1 [compound 16, [4‐(4‐Hydroxyphenyl)piperazin‐1‐yl](4‐methylphenyl)methanone]
melting point: 162 to 163 °C
IC50 [1]: 34.4 ± 0.5 µM

O=C(c1cccc(C(F)(F)F)c1)N1CCN(c2ccc(O)cc2)CC1 [compound 18, (4‐(4‐Hydroxyphenyl)piperazin‐1‐yl)(3‐(trifluoromethyl)phenyl)methanone]
melting point: 127 to 128 °C
IC50 [1]: 5.5 ± 0.2 µM

O=C(c1ccc(C(F)(F)F)cc1)N1CCN(c2ccc(O)cc2)CC1 [compound 19, (4‐(4‐Hydroxyphenyl)piperazin‐1‐yl)(4‐(trifluoromethyl)phenyl)methanone]
melting point: 201 to 202 °C
IC50 [1]: 35.1 ± 0.5 µM

O=C(c1ccc(C(F)(F)F)cc1C(F)(F)F)N1CCN(c2ccc(O)cc2)CC1 [compound 20, (4‐(4‐Hydroxyphenyl)piperazin‐1‐yl)(2,4‐bis(trifluoromethyl)phenyl)methanone]
melting point: 194 to 195 °C
IC50 [1]: 18.2 ± 2.4 µM

COc1cccc(C(=O)N2CCN(c3ccc(O)cc3)CC2)c1 [compound 22, [4‐(4‐Hydroxyphenyl)piperazin‐1‐yl](3‐methoxyphenyl)methanone]
IC50 [1]: 9.8 ± 0.4 µM

COc1ccc(C(=O)N2CCN(c3ccc(O)cc3)CC2)c(OC)c1 [compound 24, [4‐(4‐Hydroxyphenyl)piperazin‐1‐yl](2,4‐dimethoxyphenyl)methanone]
IC50 [1]: 16.7 ± 2 µM

O=C(c1cccc([N+](=O)[O-])c1)N1CCN(c2ccc(O)cc2)CC1 [compound 29, (4‐(4‐Hydroxyphenyl)piperazin‐1‐yl)(3‐nitrophenyl)methanone]
IC50 [1]: 21.8 ± 1.2 µM

Nc1ccccc1C(=O)N1CCN(c2ccc(O)cc2)CC1 [compound 32, (4‐(4‐Hydroxyphenyl)piperazin‐1‐yl)(2‐aminophenyl)methanone]
IC50 [1]: 66.4 ± 2.1 µM
